Experimental data: ChEMBL document CHEMBL1201862, “PubChem BioAssay data set” (2004)
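Five compound concentrations were applied to cells in 96-well plates for 48 hours; endpoints were derived by simple linear interpolation of the resulting dose-response curve. Abbreviation: GI50, concentration required for 50% inhibition of growth.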 Calls of active or inactive are those of the source. Cut-off read from the data, not from the text of the source: active = GI50 up to about 1.1 µM and inactive = higher. Where a SMILES comes first, the peptide text is derived from it. [ ]: non-standard residue; d: D form. Phe(4-NO2) = N[CH](Cc1ccc([N+](=O)[O-])cc1)C(=O)O

Experiments:
Assay in all cases: NCI tumour cell line growth inhibition, 48 h
[1] = tested on: A498
[2] = tested on: COLO 205
[3] = tested on: DU-145
[4] = tested on: EKVX
[5] = tested on: HCC 2998
[6] = tested on: HOP-62
[7] = tested on: IGROV-1
[8] = tested on: MDA-MB-231
[9] = tested on: MDA-MB-435
[10] = tested on: Malme-3M
[11] = tested on: NCI-H226
[12] = tested on: NCI-H522
[13] = tested on: OVCAR-4
[14] = tested on: OVCAR-5
[15] = tested on: RPMI-8226
[16] = tested on: RXF 393
[17] = tested on: SF-295
[18] = tested on: SK-MEL-28
[19] = tested on: SNB-19
[20] = tested on: UACC-62

SMILES: N#CSC/C(Cl)=C/Cl.N#CSC/C(Cl)=C\Cl
- GI50 [1]: > 100 µM (inactive)
- GI50 [2]: > 100 µM (inactive)
- GI50 [3]: > 100 µM (inactive)
- GI50 [4]: > 100 µM (inactive)
- GI50 [5]: 0.069 µM (active)
- GI50 [6]: > 100 µM (inactive)
- GI50 [7]: > 100 µM (inactive)
- GI50 [8]: > 100 µM (inactive)
- GI50 [9]: > 100 µM (inactive)
- GI50 [10]: > 100 µM (inactive)
- GI50 [11]: > 100 µM (inactive)
- GI50 [12]: > 100 µM (inactive)
- GI50 [13]: > 100 µM (inactive)
- GI50 [14]: 63.2 µM (inactive)
- GI50 [15]: 92.3 µM (inactive)
- GI50 [16]: > 100 µM (inactive)
- GI50 [17]: > 100 µM (inactive)
- GI50 [18]: > 100 µM (inactive)
- GI50 [19]: > 100 µM (inactive)
- GI50 [20]: > 100 µM (inactive)

SMILES: COCCOC(=O)C(C)=[N+]=[N-]
- GI50 [1]: > 100 µM (inactive)
- GI50 [2]: > 100 µM (inactive)
- GI50 [3]: > 100 µM (inactive)
- GI50 [4]: > 100 µM (inactive)
- GI50 [5]: > 100 µM (inactive)
- GI50 [6]: > 100 µM (inactive)
- GI50 [7]: > 100 µM (inactive)
- GI50 [8]: > 100 µM (inactive)
- GI50 [9]: > 100 µM (inactive)
- GI50 [10]: > 100 µM (inactive)
- GI50 [11]: > 100 µM (inactive)
- GI50 [12]: > 100 µM (inactive)
- GI50 [13]: > 100 µM (inactive)
- GI50 [14]: > 100 µM (inactive)
- GI50 [15]: > 100 µM (inactive)
- GI50 [16]: > 100 µM (inactive)
- GI50 [17]: > 100 µM (inactive)
- GI50 [18]: > 100 µM (inactive)
- GI50 [19]: > 100 µM (inactive)
- GI50 [20]: > 100 µM (inactive)

SMILES: O=C1c2c(F)c(F)c(F)c(F)c2SC2=Nc3cccc4cccc(c34)N12
- GI50 [1]: 18.5 µM (inactive)
- GI50 [2]: 9.35 µM (inactive)
- GI50 [3]: 12.2 µM (inactive)
- GI50 [4]: 9.79 µM (inactive)
- GI50 [5]: 13.9 µM (inactive)
- GI50 [6]: 13.7 µM (inactive)
- GI50 [7]: 11.4 µM (inactive)
- GI50 [8]: 3.24 µM (inactive)
- GI50 [9]: 4.94 µM (inactive)
- GI50 [10]: 3.48 µM (inactive)
- GI50 [11]: 11.4 µM (inactive)
- GI50 [12]: 2.54 µM (inactive)
- GI50 [13]: 3.49 µM (inactive)
- GI50 [14]: 16.1 µM (inactive)
- GI50 [15]: 2.62 µM (inactive)
- GI50 [16]: 4.1 µM (inactive)
- GI50 [17]: 14.5 µM (inactive)
- GI50 [18]: 4.27 µM (inactive)
- GI50 [19]: 8.09 µM (inactive)
- GI50 [20]: 4.22 µM (inactive)

SMILES: O=C1NC2=NOC(=O)NC2=NO1
- GI50 [1]: > 200 µM (inactive)
- GI50 [2]: > 200 µM (inactive)
- GI50 [3]: > 200 µM (inactive)
- GI50 [4]: > 200 µM (inactive)
- GI50 [5]: > 200 µM (inactive)
- GI50 [6]: > 200 µM (inactive)
- GI50 [7]: > 200 µM (inactive)
- GI50 [8]: > 200 µM (inactive)
- GI50 [9]: > 200 µM (inactive)
- GI50 [10]: > 200 µM (inactive)
- GI50 [11]: > 200 µM (inactive)
- GI50 [12]: > 200 µM (inactive)
- GI50 [13]: > 200 µM (inactive)
- GI50 [14]: > 200 µM (inactive)
- GI50 [15]: > 200 µM (inactive)
- GI50 [16]: > 200 µM (inactive)
- GI50 [17]: > 200 µM (inactive)
- GI50 [18]: > 200 µM (inactive)
- GI50 [19]: > 200 µM (inactive)
- GI50 [20]: > 200 µM (inactive)

SMILES: CC1=C(C#N)C23C(=O)c4ccccc4C(=O)C2=C(O)C=CC3(O)N1 (stereo not given)
- GI50 [1]: 21 µM (inactive)
- GI50 [2]: 2.03 µM (inactive)
- GI50 [3]: 2.98 µM (inactive)
- GI50 [4]: 5.82 µM (inactive)
- GI50 [5]: 4.02 µM (inactive)
- GI50 [6]: 5.4 µM (inactive)
- GI50 [7]: 2.38 µM (inactive)
- GI50 [8]: 8.83 µM (inactive)
- GI50 [9]: 2.81 µM (inactive)
- GI50 [10]: 1.78 µM (inactive)
- GI50 [11]: 15.7 µM (inactive)
- GI50 [12]: 1.48 µM (inactive)
- GI50 [13]: 1.97 µM (inactive)
- GI50 [14]: 4.76 µM (inactive)
- GI50 [15]: 0.658 µM (active)
- GI50 [16]: 3.8 µM (inactive)
- GI50 [17]: 13.6 µM (inactive)
- GI50 [18]: 2.51 µM (inactive)
- GI50 [19]: 4.33 µM (inactive)
- GI50 [20]: 2.52 µM (inactive)

SMILES: O=C1C=CC(=O)c2ncccc21
- GI50 [1]: 13.8 µM (inactive)
- GI50 [2]: 2.58 µM (inactive)
- GI50 [3]: 7.8 µM (inactive)
- GI50 [4]: 3.37 µM (inactive)
- GI50 [5]: 7.26 µM (inactive)
- GI50 [6]: 5.11 µM (inactive)
- GI50 [7]: 5.07 µM (inactive)
- GI50 [8]: 2.47 µM (inactive)
- GI50 [9]: 5.7 µM (inactive)
- GI50 [10]: 3.84 µM (inactive)
- GI50 [11]: 12.1 µM (inactive)
- GI50 [12]: 1.89 µM (inactive)
- GI50 [13]: 5.16 µM (inactive)
- GI50 [14]: 17.5 µM (inactive)
- GI50 [15]: 2.55 µM (inactive)
- GI50 [16]: 6.01 µM (inactive)
- GI50 [17]: 7.6 µM (inactive)
- GI50 [18]: 3.46 µM (inactive)
- GI50 [19]: 6.17 µM (inactive)
- GI50 [20]: 2.99 µM (inactive)

SMILES: CC(NC(=O)C(Cc1ccc([N+](=O)[O-])cc1)NC(=O)C(N)CCCCN)C(=O)NC(Cc1ccc([N+](=O)[O-])cc1)C(N)=O (stereo not given) (H-K[Phe(4-NO2)]A[Phe(4-NO2)]-NH2; configuration not given here)
- GI50 [1]: 85.5 µM (inactive)
- GI50 [2]: > 52.7 µM (inactive)
- GI50 [3]: 53.5 µM (inactive)
- GI50 [4]: > 71.4 µM (inactive)
- GI50 [5]: 28.1 µM (inactive)
- GI50 [6]: 11.7 µM (inactive)
- GI50 [7]: 26.2 µM (inactive)
- GI50 [8]: 39.6 µM (inactive)
- GI50 [9]: > 52.6 µM (inactive)
- GI50 [10]: 50.8 µM (inactive)
- GI50 [11]: 98.9 µM (inactive)
- GI50 [12]: > 30.5 µM (inactive)
- GI50 [13]: > 38.6 µM (inactive)
- GI50 [14]: > 100 µM (inactive)
- GI50 [15]: 29.2 µM (inactive)
- GI50 [16]: 39.2 µM (inactive)
- GI50 [17]: 32.7 µM (inactive)
- GI50 [18]: 75.7 µM (inactive)
- GI50 [19]: > 85.3 µM (inactive)
- GI50 [20]: > 100 µM (inactive)

SMILES: CO[C@H]1C[C@H](O[C@H]2CC[C@]3(C=O)[C@H]4CC[C@]5(C)[C@@H](C6=CC(=O)OC6)CC[C@]5(O)[C@@H]4CC[C@]3(O)C2)O[C@H](C)[C@H]1O [CYMARIN]
- GI50 [1]: 0.294 µM (active)
- GI50 [2]: 0.618 µM (active)
- GI50 [3]: 0.115 µM (active)
- GI50 [4]: 0.175 µM (active)
- GI50 [5]: 2.08 µM (inactive)
- GI50 [6]: 0.114 µM (active)
- GI50 [7]: 0.448 µM (active)
- GI50 [8]: 1.14 µM (inactive)
- GI50 [9]: 0.344 µM (active)
- GI50 [10]: 0.225 µM (active)
- GI50 [11]: 0.54 µM (active)
- GI50 [12]: < 0.0393 µM (active)
- GI50 [13]: 0.107 µM (active)
- GI50 [14]: 0.478 µM (active)
- GI50 [15]: 0.27 µM (active)
- GI50 [16]: 0.0467 µM (active)
- GI50 [17]: 0.133 µM (active)
- GI50 [18]: 0.845 µM (active)
- GI50 [19]: 0.713 µM (active)
- GI50 [20]: 0.43 µM (active)
